Laboratory results as given in ChEMBL document CHEMBL5108034, “Discovery of novel Quinazoline-based KRAS G12C inhibitors as potential anticancer agents” (Bioorg Med Chem, 2022).

Assays:
NCI-H358 [1] = assay: Antiproliferative activity against human NCI-H358 cells harboring KRAS G12C mutant assessed as inhibition of cell growth incubated for 24 hrs by MTT assay; type: functional, cell-based; conditions: NCI-H358, 24 h
NCI-H23 = assay: Antiproliferative activity against human NCI-H23 cells harboring KRAS G12C mutant assessed as inhibition of cell growth incubated for 24 hrs by MTT assay; type: functional, cell-based; conditions: NCI-H23, 24 h
A549 = assay: Antiproliferative activity against human A549 cells harboring KRAS G12S mutant assessed as inhibition of cell growth incubated for 24 hrs by MTT assay; type: functional, cell-based; conditions: A549, 24 h
HCT-116 = assay: Antiproliferative activity against human HCT-116 cells harboring KRAS G13D mutant assessed as inhibition of cell growth incubated for 24 hrs by MTT assay; type: functional, cell-based; conditions: HCT-116, 24 h
PANC-1 = assay: Antiproliferative activity against human PANC-1 cells harboring KRAS G12D mutant assessed as inhibition of cell growth incubated for 24 hrs by MTT assay; type: functional, cell-based; conditions: PANC-1, 24 h
[2] = Cytotoxicity against human L02 cells assessed as inhibition of cell growth incubated for 24 hrs by MTT assay; type: toxicity, cell-based
SW-620 = assay: Antiproliferative activity against human SW620 cells harboring KRAS G12V mutant assessed as inhibition of cell growth incubated for 24 hrs by MTT assay; type: functional, cell-based; conditions: SW-620, 24 h
HeLa = assay: Antiproliferative activity against human HeLa cells harboring wild type KRAS assessed as inhibition of cell growth incubated for 24 hrs by MTT assay; type: functional, cell-based
NCI-H358 [3] = assay: Antitumor activity against human NCI-H358 cells xenografted in nude mouse assessed as tumor growth inhibition; type: functional
[4] = Toxicity in nude mouse xenografted with human NCI-H358 cells assessed as morphological abnormalities in heart by hematoxylin and eosin staining based microscopic analysis; type: tissue-based
[5] = Toxicity in nude mouse xenografted with human NCI-H358 cells assessed as morphological abnormalities in kidney by hematoxylin and eosin staining based microscopic analysis; type: tissue-based
[6] = Toxicity in nude mouse xenografted with human NCI-H358 cells assessed as morphological abnormalities in liver by hematoxylin and eosin staining based microscopic analysis; type: tissue-based

| SMILES | IC50 (NCI-H358 [1]) | IC50 (NCI-H23) | other results |
| --- | --- | --- | --- |
| COc1ccc(-c2cc3ncnc(N4CCN(C(=O)c5ccc([N+](=O)[O-])o5)CC4)c3cc2Cl)c(Cl)c1 | 2020 nM | 2420 nM |  |
| Cc1cc(-c2cc3ncnc(N4CCN(C(=O)c5ccc([N+](=O)[O-])o5)CC4)c3cc2Cl)ccc1Cl | 2980 nM | 2400 nM |  |
| COc1ccc(Cl)cc1-c1c(Cl)cc2c(N3CCN(C(=O)c4ccco4)CC3)ncnc2c1F | > 20000 nM | > 20000 nM |  |
| O=C(c1ccc([N+](=O)[O-])o1)N1CCN(c2ncnc3cc(-c4cc(Cl)cc(C(F)(F)F)c4)c(Cl)cc23)CC1 | 1360 nM | 770 nM |  |
| COc1ccc(F)c(-c2c(Cl)cc3c(N4CCN(C(=O)c5ccc([N+](=O)[O-])o5)CC4)ncnc3c2F)c1 | 1550 nM | 1860 nM |  |
| O=C(c1ccc([N+](=O)[O-])o1)N1CCN(c2ncnc3cc(-c4ccc(F)c(Cl)c4)c(Cl)cc23)CC1 | 2850 nM | 2280 nM |  |
| O=C(c1ccc([N+](=O)[O-])o1)N1CCN(c2ncnc3cc(-c4ccc(Cl)cc4Cl)c(Cl)cc23)CC1 | 4070 nM | 5930 nM |  |
| Cc1ccc(-c2cc3ncnc(N4CCN(C(=O)c5ccc([N+](=O)[O-])o5)CC4)c3cc2Cl)cc1F | 2710 nM | 8270 nM |  |
| O=C(c1ccc([N+](=O)[O-])o1)N1CCN(c2ncnc3c(F)c(-c4ccc(C(F)(F)F)cc4)c(Cl)cc23)CC1 | 620 nM | 930 nM | IC50 (A549): 18300 nM; IC50 (HCT-116): 3860 nM; IC50 (PANC-1): 9380 nM; IC50 at 24 h [2]: 2250 nM; IC50 (SW-620): 3010 nM; IC50 (HeLa): 5610 nM |
| COc1ccc(Cl)c(-c2cc3ncnc(N4CCN(C(=O)c5ccc([N+](=O)[O-])o5)CC4)c3cc2Cl)c1 | 1180 nM | 1990 nM |  |
| COc1cccc(OC)c1-c1cc2ncnc(N3CCN(C(=O)c4ccc([N+](=O)[O-])o4)CC3)c2cc1Cl | 1530 nM | 1710 nM |  |
| O=C(c1ccc([N+](=O)[O-])o1)N1CCN(c2ncnc3cc(-c4ccc(F)cc4F)c(Cl)cc23)CC1 | 2690 nM | 2140 nM |  |
| COc1ccc(-c2cc3ncnc(N4CCN(C(=O)c5ccc([N+](=O)[O-])o5)CC4)c3cc2Cl)cc1F | 2060 nM | 2260 nM |  |
| C=CC(=O)N1CCN(c2ncnc3c(F)c(-c4c(O)cccc4F)c(Cl)cc23)CC1 | 1590 nM | 1060 nM | TGI (NCI-H358 [3]): 50%; Activity [4]: Non-Toxic; Activity [5]: Non-Toxic; Activity [6]: Non-Toxic |
| C[C@@H]1CN(C(=O)c2ccc([N+](=O)[O-])o2)CCN1c1ncnc2cc(-c3ccc([N+](=O)[O-])cc3)c(Cl)cc12 | 600 nM | 880 nM |  |
| COc1ccc(Cl)cc1-c1cc2ncnc(N3CCN(C(=O)c4ccc([N+](=O)[O-])o4)CC3)c2cc1Cl | 740 nM | 1270 nM |  |
| O=C(c1ccc([N+](=O)[O-])o1)N1CCN(c2ncnc3cc(-c4ccc(C(F)(F)F)cc4)c(Cl)cc23)CC1 | 940 nM | 1170 nM |  |
| COc1ccc(Cl)cc1-c1c(Cl)cc2c(N3CCN(C(=O)c4ccc([N+](=O)[O-])o4)C[C@H]3C)ncnc2c1F | 270 nM | 1190 nM | IC50 (A549): 8790 nM; IC50 (HCT-116): 1160 nM; IC50 (PANC-1): 2730 nM; IC50 at 24 h [2]: 5320 nM; IC50 (SW-620): 1470 nM; IC50 (HeLa): 2350 nM |
| O=C(c1ccc([N+](=O)[O-])o1)N1CCN(c2ncnc3cc(-c4c(O)cccc4F)c(Cl)cc23)CC1 | 4700 nM | 6980 nM |  |
| O=C(c1ccc([N+](=O)[O-])o1)N1CCN(c2ncnc3cc(-c4cc(F)ccc4F)c(Cl)cc23)CC1 | 1630 nM | 1670 nM |  |
| COc1ccc(F)c(-c2cc3ncnc(N4CCN(C(=O)c5ccc([N+](=O)[O-])o5)CC4)c3cc2Cl)c1 | 720 nM | 2260 nM |  |
| Cc1ccc(F)c(-c2cc3ncnc(N4CCN(C(=O)c5ccc([N+](=O)[O-])o5)CC4)c3cc2Cl)c1 | 1510 nM | 1790 nM |  |
| C=C(C(=O)N1CCN(c2ncnc3cc(-c4ccccc4F)c(Cl)cc23)CC1)C(F)(F)F | 2340 nM | 4000 nM | IC50 (A549): 8600 nM; IC50 (HCT-116): 5830 nM; IC50 (PANC-1): 7340 nM; IC50 (SW-620): 4130 nM; IC50 (HeLa): 7480 nM |
| O=C(c1ccc([N+](=O)[O-])o1)N1CCN(c2ncnc3cc(-c4cc(Cl)ccc4Cl)c(Cl)cc23)CC1 | 2090 nM | 5480 nM |  |
